Results: PubChem BioAssay (NCI)
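A five-concentration, 48-hour dose response in 96-well plates underlies each endpoint, interpolated linearly between surrounding concentrations. TGI: total growth inhibition.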

Experiments:
Experiment in all cases: NCI-60 cell line screen, 48 h
NCI-H23 lung = system: NCI-H23 lung
SK-MEL-5 melanoma = system: SK-MEL-5 melanoma
HT29 colon = system: HT29 colon
U251 CNS = system: U251 CNS
MALME-3M melanoma = system: MALME-3M melanoma
DLD-1 colon = system: DLD-1 colon
SNB-78 CNS = system: SNB-78 CNS
COLO 205 colon = system: COLO 205 colon
SK-OV-3 ovarian = system: SK-OV-3 ovarian
SN12C renal = system: SN12C renal
OVCAR-8 ovarian = system: OVCAR-8 ovarian
SR leukemia = system: SR leukemia
UACC-62 melanoma = system: UACC-62 melanoma
MOLT-4 leukemia = system: MOLT-4 leukemia
KM20L2 colon = system: KM20L2 colon
OVCAR-3 ovarian = system: OVCAR-3 ovarian
M14 melanoma = system: M14 melanoma
IGROV1 ovarian = system: IGROV1 ovarian
SK-MEL-2 melanoma = system: SK-MEL-2 melanoma
HOP-92 NSCLC = system: HOP-92 NSCLC
SNB-19 CNS = system: SNB-19 CNS
HCC-2998 colon = system: HCC-2998 colon
SK-MEL-28 melanoma = system: SK-MEL-28 melanoma
SF-295 CNS = system: SF-295 CNS
RXF 393 renal = system: RXF 393 renal
NCI-H522 lung = system: NCI-H522 lung
CAKI-1 renal = system: CAKI-1 renal
SW-620 colon = system: SW-620 colon
UO-31 renal = system: UO-31 renal
M19-MEL melanoma = system: M19-MEL melanoma
K-562 leukemia = system: K-562 leukemia
HCT-15 colon = system: HCT-15 colon
TK-10 renal = system: TK-10 renal
XF 498 CNS = system: XF 498 CNS
LXFL 529 NSCLC = system: LXFL 529 NSCLC
CCRF-CEM leukemia = system: CCRF-CEM leukemia
OVCAR-4 ovarian = system: OVCAR-4 ovarian
OVCAR-5 ovarian = system: OVCAR-5 ovarian
KM12 colon = system: KM12 colon

Measured: TGI

CC1=N/C(=C\c2ccc(C)cc2)C(=O)O1
> 100 µM: all assays above
